For data set [1], the system named is OVCAR human ovarian cancer. Description: in vivo anti-tumour activity, OVCAR xenograft in nude Balb/C mice. Set-up: species or system mouse. Conditions: nude Balb/C mice with OVCAR, 0.14 mg Bi/kg. On the procedure:
Female BALB/C-nude mice, obtained from the Animal Resources Centre in Queensland, Australia were used for this experiment. […] Throughout this experiment, the mice were housed in filtered air laminar-flow cabinets and were manipulated following standard aseptic procedures.
Human ovarian cancer (OVCAR) cells were provided by Dr Ho (Department of Pharmacy, National University of Singapore). OVCAR cells were grown in RPMI-1640 medium with 10% foetal bovine serum and 5 mM L-glutamine.
A suspension of OVCAR cells (10^7 cells) were injected subcutaneously (s.c.) in the flank of each animal (0.1 ml per mice). When the volume of the tumour reached approximately 50-100 mm^3, the mice were randomly divided into 2 groups, the test group and the control group, comprising 6 mice in each group.
The compound was given subcutaneously to mice in amounts of 0.1 ml/20 g three times every two days in the first week. The dose applied was at the level of the MTD, i.e. 0.14 mg Bi/kg mouse. […]
In xenografts transplanted subcutaneously, tumour growth was monitored and the volume of the tumour was determined by measuring its diameter with a vernier calliper every 2-4 days. The Relative Tumour Volume (RTV=tumour volume on day×/tumour volume on day 1) was calculated using the formula width^2×length×0.52.

For data set [2], the system named is BALB/c mice. Briefly: Maximum Tolerated Dose (MTD) / lethal dose determination in Balb/C mouse model. Format: in vivo. On the procedure: The MTD of Bi(S2CNEt2)3 was determined in the following manner. Male and female BALB/c mice obtained from the Laboratory Animal Centre, (National University of Singapore), were used for the study. The mice used were about 4-5 weeks old with a mean body weight of 20±2 g. The 5 mice per cage were kept at room temperature and under standard light conditions. They received standard mouse chow and water. […] The mice in the control group were administered with DMSO only. […] An initial concentration of 20 mg Bi/kg was used for a small sampling population of two mice, one of each gender. If both mice died, the complex concentration was decreased, and the experiment was repeated for another two mice. If one of the mice died but the other survived, the experiment was repeated for a larger sampling population of ten mice, five of each gender, for the same complex concentration. The observation period lasted 14 days. The objective of the experiment was to plot a graph of percent of live mice (number of survivors/ten×100%) against compound dosage (in mg Bi/kg). This procedure enabled the determination of the Maximum Tolerated Dose (at MTD 90% survival of mice).

Where [3] appears, read: i.p. in DMSO, 14 days observation.

The term LD50 denotes the dose expected to kill half of the subjects tested.

With “bismuth (III) tris(N,N-diethyldithiocarbamate) [Bi(S2CNEt2)3]”, the anti-tumour activity result in data set [1] is listed as “significant anti-tumour activity”. In addition, the MTD in data set [2] (MTD = 90% survival of mice) was found to be 0.14 mg Bi/kg mouse. In data set [2] (setting [3]), this substance gave an LD10 of 0.14 mg/kg, a 50% lethal dose (LD50) of 3.57 mg/kg and an LD90 of 7 mg/kg.

Source of the values: patent publication US20060142621A1, “Bismuth dithiocarbamate compounds and uses thereof” (priority 2003, published 2006).
